Test results: patent US20100120700A1, “METHODS AND COMPOSITIONS FOR TREATING CERVICAL CANCER” (priority 2000, published 2010)
“Also recorded” adds a separate entry of the source.

Test system: human PDZ domains
Assay: G assay, E6 PL peptides against PDZ domain panel
Settings: value names the PDZ domain(s) that saturated binding with the E6 peptide; signal classes (A450 nm 3-4 or 4)
Description: (1) A PDZ-domain polypeptide is bound to a surface, e.g. a protein binding surface. In a preferred embodiment, a GST/PDZ fusion protein containing one or more PDZ domains is bound to a polystyrene 96-well plate. […] In one embodiment, the GST/PDZ fusion protein is bound via an anti-GST antibody that is coated onto the 96-well plate. Adequate binding to the plate can be achieved when: • a. 100 uL per well of 5 ug/mL goat anti-GST polyclonal antibody (Pierce) in PBS is added to a polystyrene 96-well plate (e.g., Num Polysorb) at 4° C. for 12 hours. • b. The plate is blocked by addition of 200 uL per well of PBS/BSA for 2 hours at 4° C. • c. The plate is washed 3 times with PBS. • d. […]
(3) The binding of the biotinylated peptide to the GST/PDZ fusion protein surface can be detected using a variety of methods and detectors known to one of skill in the art. […] The reaction of the HRP and its substrate is terminated by addition of 100 uL per well of 1M sulfuric acid, and the absorbance of each well of the plate is read at 450 nm.
(4) Specific binding of a PL peptide and a PDZ domain polypeptide is determined by comparing the signal from the well(s) in which the PL peptide and PDZ domain polypeptide are combined, with the background signal(s). […]

In the case of “20 mer peptide corresponding to the C-terminus of HPV16 E6 (PDZ ligand), biotinylated in binding assays; ends SSRTRRETQL (SEQ ID NO: 13) [HPV E6 #16]”, the “PDZ binding partner (signal 4 and 5 of 0-5)” value is reported as “TIP-1; also recorded: Magi1 (PDZ #2)”.
